Experimental data as given in the METLIN SMRT retention time set (Domingo-Almenara et al. 2019).

Experiment: gradient 5% acetonitrile 3 min, to 50% in 2 min, to 85% in 15 min, held 3 min, 100 µL/min
Settings: column: Zorbax Extend-C18 2.1 x 50 mm; eluents: water / acetonitrile, 0.1% formic acid
Procedure, shortened: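 Using water and acetonitrile that each contained 0.1% formic acid, mixtures of ~100 pure standards were separated at 100 μL/min on a Zorbax Extend-C18 column (2.1 × 50 mm, 1.8 μm). The HPLC fed a quadrupole time-of-flight mass spectrometer working in positive and negative ionization mode, with dead and dwell volumes of 40 μL and 900 μL. Data were acquired over 3 months. Retention time was read from computationally picked adduct peaks after manual inspection of each.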

SMILES	RP-LC retention time [s]
Cc1ccc(-n2nnc(C(=O)O)c2-c2ccccn2)c(F)c1	697
O=C(Nc1ccc(C(F)(F)F)cc1)c1cn(CC(O)c2ccccc2)nn1 (stereo not given)	581
Fc1ccc(-c2nnc(Cc3nc(-c4ccc(Cl)cc4)no3)o2)cc1	1080
CN(C)S(=O)(=O)c1ccc2c(c1)N(CC(=O)Nc1ccc3c(c1)OCO3)C(=O)C1CCCCN21 (stereo not given)	877
COCCCNC(=O)N1CCC(C)(c2noc(C3CCOCC3)n2)CC1	654
CCCN(CCC)C(=O)Cn1c(CN(C)C(C)=O)nc2ccccc21	630
Cc1ccc(NC(=O)Cn2c(C)nc3c(sc4nc(-c5ccccc5)ccc43)c2=O)cc1Cl	1030
O=C(c1ccco1)N1CCCC1c1nc(-c2cccc(C(F)(F)F)c2)no1 (stereo not given)	1020
Cc1nn2c(CNC(=O)c3cccc(C(F)(F)F)c3)c(C)nc2s1	688
COc1ccc(CCc2nc3nccc(-c4ccc(OC)c(OC)c4)n3n2)cc1	856
Brc1cccc(-c2nnc3sc(-c4ccncc4)nn23)c1	838
O=c1ccc(-c2ccc(F)cc2)nn1CCc1nc(-c2ccc3c(c2)OCO3)no1	933
CCc1noc(NC(C)=O)c1-c1ccc(OC)c(S(=O)(=O)NCc2ccccc2OC)c1	791
CCn1c(C(=O)NC(C)CCc2ccccc2)cc2sccc21 (stereo not given)	1110
COc1ccc(Cl)cc1C(=O)NC1CCN(c2cc(-c3cccs3)[nH]n2)C1 (stereo not given)	802
Nc1ncnc2c1nnn2C1OC(CO)C(O)C1O (stereo not given)	513
CC1CCN(S(=O)(=O)c2cccn(CC(=O)NCCC3=CCCCC3)c2=O)CC1	878
O=C1c2ccccc2-c2c1c1ccccc1c(=O)n2Cc1ccccc1	1130
COc1ccc(NC(=O)c2cn(-c3cc(N(C)C)ncn3)cn2)cc1OC	678

SMILES	RP-LC retention time [s]
CSc1ccc(CNC(=O)CCc2nnc3c4cc(-c5ccccc5)nn4ccn23)cc1	780
CCCN(CCC)CCCNC(=O)C1CCCN(c2ncc(-c3ccccc3)cn2)C1 (stereo not given)	719
CCCNC(=O)Cn1cc(C(=O)Nc2ccc(C)c(C)c2)c(=O)c2ccc(C)nc21	966
OCc1cnc(SCc2cccc(C(F)(F)F)c2)n1Cc1ccc2c(c1)OCO2	649
CCCOc1nc2ccccc2nc1N1CCCC(C(=O)NCc2ccco2)C1 (stereo not given)	1100
Cc1ccccc1-c1nc2cnccn2c1NCCC(=O)NCc1cccs1	649
CCc1ccc(S(=O)(=O)NCCc2csc(-c3cccnc3)n2)s1	734
CC1CCC(C(=O)Nc2ccc3c(c2)n(C)c(=O)c(=O)n3C)CC1 (stereo not given)	737
CCOc1ccccc1-c1noc(Cn2ncn3nc(-c4ccc(F)cc4)cc3c2=O)n1	1080
CCCCN(C)c1ccc2nnc(CCc3nc(-c4cccc(C)c4)no3)n2n1	951
O=C(NCCc1c[nH]c2ccccc12)C1CC(=O)N(c2n[nH]c3cccc(F)c23)C1 (stereo not given)	710
CC(C)n1c(=O)c(NCc2ccc(F)cc2)nc2ccncc21	669
CCc1noc(-c2cnc3nc(C)ccc3c2Nc2ccc(OC)cc2)n1	764
Cn1cc(-c2cc3n(n2)CCC(=O)N3CCCC(=O)Nc2ccc(F)cc2F)c2ccccc21	860
O=C(NCc1cccs1)c1ccc2c(c1)OCCCO2	791
CC(=O)Nc1cc(C(=O)NCc2ccccc2C)c2ccc(C)nc2c1	610
CCOC(=O)Cn1cccc(S(=O)(=O)N2CCCCCC2)c1=O	831
CC(NC(=O)c1c(O)c2cccnc2n(-c2cccc(F)c2)c1=O)c1ccccc1 (stereo not given)	1230
CC(C)CCNC(=O)C1CCN(S(=O)(=O)c2ccc3c(c2)sc(=O)n3C)CC1	832

SMILES	RP-LC retention time [s]
Cc1cccc(C)c1NC(=O)NCc1ccco1	790
Cc1ccc(C2Cn3nnc(C(=O)NCC4CC4)c3CO2)cc1 (stereo not given)	873
Cc1cccc(C)c1NC1=NCCCS1	635
COc1ccc(-c2nc(Cn3ccn4nc(-c5ccc6c(c5)OCO6)cc4c3=O)c(C)o2)cc1	1100
Cc1noc(C)c1CCC(=O)NCCOc1cccc2cccnc12	548
O=C(CCc1nc2ccccc2s1)N1CCC(c2noc(-c3ccccn3)n2)C1 (stereo not given)	755
O=C(Cn1nc2c3ccc(Cl)cc3ncn2c1=O)Nc1ccccc1	727
CNC(=O)c1cc(C)nc2ccc(Cl)cc12	607
O=C(NCc1ccc(F)cc1)N1CCCC1c1nc(-c2ccc(F)cc2F)no1 (stereo not given)	897
O=C(NCCCOc1cccc2cccnc12)c1ccc(F)cc1Cl	580
O=C(c1ccnnc1)N1C[C@@H](COCC2CC2)[C@H](c2ccncc2)C1	570
O=C(Cn1cnc2nc3c(cc2c1=O)CCCC3)Nc1ccc(Br)cc1F	791
Cc1ccc2nc(-c3ccc(C)c(NC(=O)c4cccs4)c3)[nH]c2c1	681
Cc1ccc(Nc2c(-c3ccc(C)cc3)nc3ncccn23)cc1	802
CCOc1ccc(NS(=O)(=O)c2ccc(-c3nnc(C4CCC4)o3)o2)cc1	922
O=C(O)c1ccc(Nc2c3ccccc3nc3ccccc23)cc1	629
CN(CCNC(=O)C1c2ccccc2C(=O)N(C)C1c1cccs1)C1CCCCC1 (stereo not given)	706
CCOCCCNC(=O)N1CCCC(c2nn[nH]n2)C1 (stereo not given)	591

The next lines start with the values.

RP-LC retention time [s]	SMILES
578	CCOC(=O)C1=C(CN(C)Cc2ccccc2)NC(=O)NC1c1ccc(OC)cc1 (stereo not given)
746	Cc1oc(-c2[nH]ncc2C(=O)N2CCCC2)cc1S(=O)(=O)N1CCC(C)CC1
858	COc1ccc(NC(=O)C2CCc3nc(N4CCOCC4)ncc3C2)cc1C(F)(F)F (stereo not given)
611	COCCCNC(=O)CCc1cc2cc(OC)ccc2[nH]c1=O
741	Cc1ccc(-c2csc(NC(=O)CSc3nc4c(cc3C#N)CN(C(C)C)CC4)n2)cc1
612	COc1ccc(-c2nc3cnccn3c2Nc2cccc(C(N)=O)c2)cc1
765	O=C(Cc1ccccc1)N1CCN(c2cc(-c3cccs3)[nH]n2)CC1
854	CCOC(=O)COc1cc(-c2ccc(C)cc2)nc2ccc(NC(=O)C3CCCC3)cc12
636	O=C(COc1ccccc1)N1CCN(c2nc(CN3CCCCC3)cs2)CC1
692	COc1ccc(CNC(=O)Cc2nnc(-c3ccsc3)o2)c(OC)c1
579	O=C(COc1ncccn1)N1CCN(c2ncccn2)CC1
751	CCOc1ccc(CNC(=O)CN2CCN(Cc3ccc(F)cc3)C2=O)cc1OC
749	CCN1c2ccccc2C(=O)NC12CCN(C(=O)c1ccccc1F)CC2
930	CCCCOc1ccc(CNC(=O)C2CCCN(c3nccc(C)n3)C2)cc1 (stereo not given)
886	CCc1noc(CN2N=C(C(=O)N3CCC(C)CC3)S(=O)(=O)c3ccccc32)n1
785	CN1c2cc(F)ccc2C(=O)NC12CCN(C(=O)c1ccc(Cl)cc1)CC2
704	CCc1c(C2CCN(C(=O)c3cc(C)oc3C)CC2)noc1N

RP-LC retention time [s]	SMILES
889	CC(=O)N1CCc2cc(-c3ccc(C(=O)N4CCC(C)CC4)cc3)ccc21
952	CC(C)c1ccc(OCC(=O)Nc2cnn(C)c(=O)c2N2CCOCC2)cc1
738	CC(=O)N1CCc2cc(CNS(=O)(=O)c3ccc(F)cc3)ccc21
868	Cc1cccc(N2C=C(C(=O)N3CCOCC3)S(=O)(=O)c3ccc(Cl)cc32)c1
908	Cc1ccc(CNC(=O)c2ccc3c(c2)N(C)C(=O)C2CCCCN32)cc1 (stereo not given)
742	COc1ccc(C(=O)N2CCC3(CC2)NC(=O)c2cc(Cl)ccc2N3C)cc1OC
831	COc1ccc(NC(=O)c2cc(C(C)C)n(C3CCS(=O)(=O)C3)n2)cc1 (stereo not given)
615	CC1CN=C2C=C(N3CCN(C(=O)Nc4ccccc4C(F)(F)F)CC3)N=CN21 (stereo not given)
752	CN1CCN(CC/C=C2/c3ccccc3Sc3ccc(S(=O)(=O)N(C)C)cc32)CC1
717	CCC(=O)N1CCc2sc(C(=O)N3CCN(c4ccc(OC)cc4)CC3)cc2C1
859	CC(NC(=O)c1ccco1)c1nc(-c2ccc(N3CCCCC3)cc2)no1 (stereo not given)
835	Cc1ccc(NC(=O)N2CCC(n3cnc4c(C)cccc4c3=O)CC2)c(C)c1
802	COc1ccc2[nH]cc(CCN3CC(C(=O)N4CCc5ccccc54)CC3=O)c2c1 (stereo not given)
723	COc1ccccc1C(=O)N1CCCC1c1cc(C)on1 (stereo not given)
780	COc1ccc(CNC(=O)CN2C(=O)NC(c3ccc(Cl)cc3)C3=C2COC3=O)cc1 (stereo not given)
912	COCc1cc(=O)n(Cc2cc(C)ccc2C)c(N2CCCC2)n1
877	COc1cccc(-c2noc(C3CCCN3C(=O)Nc3ccccc3C)n2)c1 (stereo not given)
